For assay [1], the system named is influenza A/Kitakyushu/159/93 (H3N2). Briefly: Antiviral properties of treated natural rubber glove film, plaque method on MDCK cells. It is filed as cell-based, influenza virus. The settings on record: glove immersed in 1% (V/V) aqueous solution for 10 minutes, dried; virus contact 1 hour at room temperature; control 6.78.
Assay [2] deals with T1, binding of SARS-CoV-2 to ACE2 (UniProt P0DTC2+Q9BYF1).
T1 construct: purchased RayBiotech Life, Inc
Description: COVID-19 Spike-ACE2 Binding Assay Kit (RayBiotech): ACE2 protein binding to S-protein adsorption plate, absorbance at 450 nm. On the set-up: species or system human.

Assay [3] relates to coronavirus (SARS-CoV-2). Briefly: Antiviral test of processed non-woven fabric according to ISO 18184, plaque method. It is filed as cell-based. The settings on record: polyethylene terephthalate non-woven fabric immersed in 2% (V/V) aqueous solution, pickup rate 200%, dried at 110°C; control 6.63.

The source of these data is patent EP4389132A1 (priority 2021, dated 2023).

On to `O[C@H]1[C@H](O)[C@@H](O)[C@H](O)[C@@H](O)[C@H]1O` [Myo-inositol, myo-inositol], for which the Viral infectivity titer in assay [1] was 4.1 PFU/0.1 mL, Log10; in assay [3] it was 2.7 PFU/0.1 mL, Log10. The same compound gave a Virus binding rate in assay [2] (Concentration 2 % (V/V), relative binding rate, control = 1.00) of 1.00. In addition, the “binding inhibitory effect on the binding of SARS-CoV-2 to ACE2 (in words)” value in assay [2] (summary of Table 1) is given as “no binding inhibitory effect was observed”.
